# Measurements published in US20180148418A1, “AMIDO-SUBSTITUTED CYCLOHEXANE DERIVATIVES” (Bayer Pharma Aktiengesellschaft, priority 2015, published 2018).
# Tests used:
# [1] = system: wildtype Wnt signaling cascade; test: HEK293 TOP assay (Super TopFlash luciferase reporter, Wnt-3a stimulated); type: cell-based; conditions: Homo sapiens, HEK293, 16 h, HEK293 TOP reporter cells, Wnt3a at EC50, 16 hours
# From the text: 7.1 Measurement of the Inhibitory Activity of Selected Compounds on the Wildtype Wnt Signaling Cascade: HEK293 TOP/FOP Assay
# In order to discover and characterize small molecules which inhibit the wildtype Wnt pathway, a cellular reporter assay was employed. The corresponding assay cell was generated by transfection of the mammalian cell line HEK293 (ATCC, #CRL-1573) with the Super TopFlash vector (Morin, Science 275, 1997, 1787-1790; Molenaar et al., Cell 86 (3), 1996, 391-399). The HEK293 cell line is cultivated at 37° C. and 5% CO2 in DMEM (Life Technologies, #41965-039), supplemented with 2 mM glutamine, 20 mM HEPES, 1.4 mM pyruvate, 0.15% Na-bicarbonate and 10% foetal bovine serum (GIBCO, #10270). Stable transfectants were generated by selection with 300 μg/ml Hygromycin.
# (§1) In preparation of the assay, the two cell lines were plated 24 h before beginning the test at 10000 cells per well in a 384 micro titre plate (MTP) in 30 μl growth medium. […] The recombinant human Wnt-3a was thereby applied between 2500 and 5 ng/ml in two-fold dilution steps.
# (§2) Selective inhibitory activity for small molecules on the wildtype Wnt pathway was determined after parallel incubation of both (TOP and FOP) HEK293 reporter cell lines with a compound dilution series from 50 μM to 15 nM in steps of 3.16-fold dilutions in CAFTY buffer (130 mM sodium chloride, 5 mM potassium chloride, 20 mM HEPES, 1 mM magnesium chloride, 5 mM sodium bicarbonate, pH 7.4) containing 2 mM Ca^2+ and 0.01% BSA.
# (§3) The compounds were thereby serially prediluted in 100% DMSO and thereafter 50 fold into the CAFTY compound dilution buffer (described above).
# [2] = system: HEK293 cells cotransfected with the FOP control vector; test: HEK293 FOP assay (control reporter with non-functional TCF elements); type: cell-based; conditions: Homo sapiens, 16 hours
# Protocol: In a parallel approach, HEK293 cells were cotransfected with the FOP control vector and pcDNA3. The FOP vector is identical to the TOP construct, but it contains instead of functional TCF elements a randomized, non-functional sequence. For this transfection a stable transfected cell line was generated as well, based on selection with Geneticin (1 mg/ml).
# as §1, §2, §3
# [3] = target: T1, TNKS2 (Homo sapiens, UniProt Q9H2K2); test: TNKS2 Assay B (auto-parsylation, [3H]-NAD+ SPA); type: biochemical; conditions: 6 nM TNKS2, auto-parsylation, over night at room temperature
# T1 construct: purchased BPS Bioscience, San Diego, USA 80572 (TNKS2 Histone Ribosylation Assay Kit)
# T1 sequence (Q9H2K2 1-1166): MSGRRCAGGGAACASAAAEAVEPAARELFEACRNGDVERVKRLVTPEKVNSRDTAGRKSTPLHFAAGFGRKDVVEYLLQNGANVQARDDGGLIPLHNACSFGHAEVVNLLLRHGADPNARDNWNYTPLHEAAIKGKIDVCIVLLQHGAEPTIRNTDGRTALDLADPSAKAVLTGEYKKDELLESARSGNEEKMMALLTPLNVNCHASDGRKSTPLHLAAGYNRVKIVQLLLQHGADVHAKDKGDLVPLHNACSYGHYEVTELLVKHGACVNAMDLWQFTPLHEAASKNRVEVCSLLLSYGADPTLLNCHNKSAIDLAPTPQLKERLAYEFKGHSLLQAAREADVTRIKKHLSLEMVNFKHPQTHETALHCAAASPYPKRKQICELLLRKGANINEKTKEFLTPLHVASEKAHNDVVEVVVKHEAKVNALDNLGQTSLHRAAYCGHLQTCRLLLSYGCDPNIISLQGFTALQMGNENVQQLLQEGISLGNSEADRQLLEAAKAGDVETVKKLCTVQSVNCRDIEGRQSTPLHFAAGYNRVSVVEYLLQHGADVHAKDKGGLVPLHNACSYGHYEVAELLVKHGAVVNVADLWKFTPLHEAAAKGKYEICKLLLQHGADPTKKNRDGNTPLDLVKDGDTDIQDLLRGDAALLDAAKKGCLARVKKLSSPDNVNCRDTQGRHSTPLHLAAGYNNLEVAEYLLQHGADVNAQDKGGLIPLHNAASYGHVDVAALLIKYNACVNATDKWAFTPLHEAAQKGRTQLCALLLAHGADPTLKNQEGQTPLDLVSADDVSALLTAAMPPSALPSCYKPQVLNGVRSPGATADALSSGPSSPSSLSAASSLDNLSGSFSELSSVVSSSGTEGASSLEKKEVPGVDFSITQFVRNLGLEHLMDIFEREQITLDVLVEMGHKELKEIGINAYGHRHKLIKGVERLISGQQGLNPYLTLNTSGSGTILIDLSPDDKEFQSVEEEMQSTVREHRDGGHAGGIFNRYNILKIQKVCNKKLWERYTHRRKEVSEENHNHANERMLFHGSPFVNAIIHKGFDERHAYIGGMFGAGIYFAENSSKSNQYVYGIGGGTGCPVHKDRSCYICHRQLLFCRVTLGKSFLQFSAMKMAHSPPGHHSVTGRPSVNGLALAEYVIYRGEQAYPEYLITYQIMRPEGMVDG
# Protocol: The potency of selected compounds according to the invention was assessed applying a modified in vitro inhibition assay. Here, the TNKS2 catalyzed NAD^+-dependent ribosylation of the enzyme itself (auto-parsylation) was detected using [^3H]-NAD^+ as substrate and applying the scintillation proximity assay (SPA) method to detect tritium-labeled, parsylated TNKS2. The intensity of the readout signal is proportional to the incorporated [^3H]-NAD^+. Inhibition of TNKS2 leads to a decreased incorporation of [^3H]-NAD^+ and consequently to a lower readout signal intensity. The concentration of a test compound which inhibits the enzyme activity by 50% (corresponds to half of the normed readout signal intensity) is reported as IC50.
# Protocol Auto-Parsylation Assay
# The assay was conducted in a 96 well MTP format with the identical TNKS2 enzyme sample and NAD^+ sample as in the histone ribosylation assay with the following modifications: TNKS2 enzyme sample was diluted with a modified assay buffer (50 mM MES pH 7.0, 1 mM DTT, 0.01% Triton X-100) to a final concentration of 6 nM TNKS2 and 10×NAD^+ solution was diluted with the modified assay buffer (s. above) to a final 0.445×NAD^+ solution doped with 100 Bq/μl [^3H]-NAD^+[Catalog #NET443H050UC, Perkin Elmer, Waltham, Mass., USA]. Substrate solution (10 μl) was incubated with different test compound concentrations (2.5 μl in 10% DMSO in modified assay buffer) or control (2.5 μl 10% DMSO in modified assay buffer only) and enzyme (10 μl) over night at room temperature. Incorporated tritium was measured after addition of 50 ul SPA beads (1 mg/ml) [Catalog #RPNQ0095 20 mg/ml, Perkin Elmer, Waltham, Mass., USA; diluted 1:10 with Dulbecco's phosphate buffered saline, PBS Catalog #D8537, Sigma-Aldrich, Steinheim, Germany] and detection of the photon emission with a beta count plate reader [Wallac MicroBeta®, Perkin Elmer, Waltham, Mass., USA].
Compound,IC50 [1] [nM],IC50 [3] [nM],IC50 [2] [nM]
"O=C(N[C@H]1CC[C@@]2(CCN(c3ccccc3Cl)C2=O)CC1)c1n[nH]c2cccnc12 [Example 272, N-[(trans)-2-(2-chlorophenyl)-1-oxo-2-azaspiro[4.5]dec-8-yl]-1H-pyrazolo[4,3-b]pyridine-3-carboxamide]",200,640,≥ 50000
"O=C(N[C@H]1CC[C@@]2(CCN(c3ccc(F)cc3Cl)C2=O)CC1)c1n[nH]c2cccnc12 [Example 228, N-[(trans)-2-(2-chloro-4-fluorophenyl)-1-oxo-2-azaspiro[4.5]dec-8-yl]-1H-pyrazolo[4,3-b]pyridine-3-carboxamide]",60,420,≥ 500
"O=C(N[C@H]1CC[C@@]2(CCN(c3ccccc3)C2=O)CC1)c1cnc2cccnn12 [Example 240, N-[(trans)-1-oxo-2-phenyl-2-azaspiro[4.5]dec-8-yl]imidazo[1,2-b]pyridazine-3-carboxamide]",29,510,≥ 500
"O=C(N[C@H]1CC[C@@]2(CCN(c3ccc(F)cc3Cl)C2=O)CC1)c1n[nH]c2ccccc12 [Example 251, N-[trans-2-(2-chloro-4-fluorophenyl)-1-oxo-2-azaspiro[4.5]dec-8-yl]-1H-indazole-3-carboxamide]",2500,> 10000,≥ 50000
"O=C(N[C@H]1CC[C@@]2(CCCN(c3cc(F)c(F)cc3Cl)C2=O)CC1)c1[nH]cnc1C(=O)N1CCOCC1 [Example 323, N-[(trans)-2-(2-chloro-4,5-difluorophenyl)-1-oxo-2-azaspiro[5.5]undec-9-yl]-4-(morpholin-4-ylcarbonyl)-1H-imidazole-5-carboxamide]",97,930,≥ 50000
"CC(C)NC(=O)c1nc[nH]c1C(=O)N[C@H]1CC[C@@]2(CCCN(c3ccc(F)cc3Cl)C2=O)CC1 [Example 329, N^5-[(trans)-2-(2-chloro-4-fluorophenyl)-1-oxo-2-azaspiro[5.5]undec-9-yl]-N^4-(propan-2-yl)-1H-imidazole-4,5-dicarboxamide]",260,160,40000

# The next molecules have a lower IC50 [1] than those just listed; values first:
IC50 [1] [nM],IC50 [3] [nM],Compound,IC50 [2] [nM]
15,26,"O=C(N[C@H]1CC[C@@]2(CCN(c3ccc(OC(F)(F)F)cc3Cl)C2=O)CC1)c1cnn2cccnc12 [Example 354, N-{(trans)-2-[2-chloro-4-(trifluoromethoxy)phenyl]-1-oxo-2-azaspiro[4.5]dec-8-yl}pyrazolo[1,5-a]pyrimidine-3-carboxamide]",19000
6.5,76,"O=C(N[C@H]1CC[C@@]2(CCN(c3ccc(F)cc3Cl)C2=O)CC1)c1cnn2c(C(F)F)cc(C(F)F)nc12 [Example 331, N-[(trans)-2-(2-chloro-4-fluorophenyl)-1-oxo-2-azaspiro[4.5]dec-8-yl]-5,7-bis(difluoromethyl)pyrazolo[1,5-a]pyrimidine-3-carboxamide]",30000
3,19,"O=C(NC1CC1)c1nc[nH]c1C(=O)N[C@H]1CC[C@@]2(CCCN(c3cc(F)c(F)cc3Cl)C2=O)CC1 [Example 324, N^5-[(trans)-2-(2-chloro-4,5-difluorophenyl)-1-oxo-2-azaspiro[5.5]undec-9-yl]-N^4-cyclopropyl-1H-imidazole-4,5-dicarboxamide]",≥ 500
4,21,"O=C(N[C@H]1CC[C@@]2(CCN(c3ccc(F)cc3Cl)C2=O)CC1)c1cn(CCO)c2cccnc12 [Example 344, N-[(trans)-2-(2-chloro-4-fluorophenyl)-1-oxo-2-azaspiro[4.5]dec-8-yl]-1-(2-hydroxyethyl)-1H-pyrrolo[3,2-b]pyridine-3-carboxamide]",≥ 50000
0.08,7,"O=C(N[C@H]1CC[C@@]2(CCN(c3ccccc3Cl)C2=O)CC1)c1[nH]cnc1C(=O)N1CC(F)C1 [Example 262, N-[(trans)-2-(2-chlorophenyl)-1-oxo-2-azaspiro[4.5]dec-8-yl]-4-[(3-fluoroazetidin-1-yl)carbonyl]-1H-imidazole-5-carboxamide]",≥ 50000
